Measured values reported in BindingDB's records for patent US20240409538 (Impact Therapeutics (Shanghai), 2024).

Molecular target: Ubiquitin carboxyl-terminal hydrolase 1/WD repeat-containing protein 48 (Homo sapiens, UniProt O94782)
Assay: Not found

Sequence of Ubiquitin carboxyl-terminal hydrolase 1/WD repeat-containing protein 48 (O94782 whole entry): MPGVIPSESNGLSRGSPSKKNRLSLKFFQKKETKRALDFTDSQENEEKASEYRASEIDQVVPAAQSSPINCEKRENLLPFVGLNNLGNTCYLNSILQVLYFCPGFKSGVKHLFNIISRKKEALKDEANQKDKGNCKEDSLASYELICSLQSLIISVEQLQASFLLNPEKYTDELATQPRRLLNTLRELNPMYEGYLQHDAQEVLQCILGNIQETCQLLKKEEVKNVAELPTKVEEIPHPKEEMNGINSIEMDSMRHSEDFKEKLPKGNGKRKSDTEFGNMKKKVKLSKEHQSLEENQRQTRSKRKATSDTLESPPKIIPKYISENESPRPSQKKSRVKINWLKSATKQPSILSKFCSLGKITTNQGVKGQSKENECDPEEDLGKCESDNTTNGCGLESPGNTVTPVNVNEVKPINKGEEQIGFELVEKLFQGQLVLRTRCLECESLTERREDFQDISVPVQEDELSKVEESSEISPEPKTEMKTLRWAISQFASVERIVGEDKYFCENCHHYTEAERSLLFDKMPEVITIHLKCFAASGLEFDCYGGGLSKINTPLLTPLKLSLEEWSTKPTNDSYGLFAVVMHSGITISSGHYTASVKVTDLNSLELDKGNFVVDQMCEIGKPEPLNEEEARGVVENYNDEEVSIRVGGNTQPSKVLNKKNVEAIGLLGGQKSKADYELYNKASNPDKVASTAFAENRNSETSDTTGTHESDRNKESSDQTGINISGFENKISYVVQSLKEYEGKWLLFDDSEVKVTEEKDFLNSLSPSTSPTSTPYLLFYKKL
Sequence of Ubiquitin carboxyl-terminal hydrolase 1/WD repeat-containing protein 48 (Q8TAF3 whole entry, further chain): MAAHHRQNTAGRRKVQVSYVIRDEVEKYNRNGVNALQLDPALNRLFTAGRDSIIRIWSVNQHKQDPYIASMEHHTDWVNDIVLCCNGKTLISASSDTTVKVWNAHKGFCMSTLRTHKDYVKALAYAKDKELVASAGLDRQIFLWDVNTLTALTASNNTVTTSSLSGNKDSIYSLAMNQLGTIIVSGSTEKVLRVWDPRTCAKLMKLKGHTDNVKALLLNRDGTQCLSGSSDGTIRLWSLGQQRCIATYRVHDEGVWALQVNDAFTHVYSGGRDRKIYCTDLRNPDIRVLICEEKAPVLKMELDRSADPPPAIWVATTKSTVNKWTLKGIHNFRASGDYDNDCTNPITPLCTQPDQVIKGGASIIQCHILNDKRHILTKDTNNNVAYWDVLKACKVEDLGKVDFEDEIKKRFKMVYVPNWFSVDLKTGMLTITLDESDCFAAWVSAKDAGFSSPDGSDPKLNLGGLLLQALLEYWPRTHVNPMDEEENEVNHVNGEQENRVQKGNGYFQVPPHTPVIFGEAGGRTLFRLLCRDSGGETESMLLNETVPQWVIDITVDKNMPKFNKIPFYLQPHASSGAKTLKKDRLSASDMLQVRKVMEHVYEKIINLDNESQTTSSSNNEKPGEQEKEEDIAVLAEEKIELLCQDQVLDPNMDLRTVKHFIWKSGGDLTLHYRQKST

COc1ncnc(OC)c1-c1nc2c(Cc3ccc(-c4nc(C(F)(F)F)cn4C)cc3)cccn2n1 [US20240409538, Example 27]
IC50: 77.5 nM
